Results on 17 compounds are retold here after patent publication US4338445A, “N-(Carbonylamino)-tetrahydropyridyl derivatives” (Canadian Patents & Development Limited, priority 1979, dated 1982).

Experiment [1] deals with phenylquinone-induced muscular writhing. The experiment can be described thus: Analgesic activity, phenylquinone-writhing test. It counts as in vivo, Swiss albino mice. The note with it: for Physiological activity: analgesic (in words): mouse, in vivo. The protocol: (§1) The compounds of formula (1) have anti-inflammatory, analgesic, hyperglycemic, and/or hypoglycemic properties. […] A. Winter, p.190-202, Int. Symposium on Non-Steroidal Anti-Inflammatory Drugs, Milan, 1964, Excerpta Medica Foundation, Amsterdam. […] J. Pharmac. Chemother. 32, 295 (1968). […] Chem. 3, 99 (1961) and by Barthelmai et al., in Klin. Wchschr. 40, 585 (1962).
(§2) Initially the activity of the compound tested on an animal was determined at a single dose. If the substance was active at this dose, it was subjected to limited repeat testing. If the presence of activity was confirmed by repetition of the testing, a dose response relation was constructed and the effective dose (ED50) determined. If toxicity was encountered with the initial dose, the dose was reduced until one was reached which was tolerated by the animals tested.
Substances were administered subcutaneously to five Swiss albino mice, weighing 18 to 22 grams, before determining their activity in the phenylquinone-writhing test (see Collier et al, cited above). The active ingredients were suspended in a solution of physiological saline and "Tween 80™" surfactant. A dose amounting to 10 milliliters of physiological saline solution and active ingredient per kilogram of bodyweight was administered to the mice according to the dosage as set out in Table 2. The test results are shown in Table 2, the compounds tested being compared to Aspirin™ and dextropropoxyphene™.
Background: An intraperitoneal irritant provokes the stretching counted in writhing tests.

For the next experiment, the system named is blood glucose. Kind of experiment: Determination of blood glucose (hyperglycemic / hypoglycemic activity). It counts as in vivo, Wistar rats. The note with it: for % change in blood-glucose concentrations, post-treatment 2 hours / % change in blood-glucose concentrations, post-treatment 4 hours / ED50: oral, fasted rats; for % change in blood-glucose concentrations, post-treatment 2 hours / % change in blood-glucose concentrations, post-treatment 4 hours: 100 mg/kg; for ED50: Rattus norvegicus, dose elevating blood glucose by 50 percent; for Physiological activity: hyperglycemic (in words) / Physiological activity: hypoglycemic (in words): rat, in vivo. The protocol: as §1, §2
Compounds were suspended in distilled water and were administered orally to overnight-fasted Wistar rats. Capillary blood samples were obtained from the tail at zero, two, and four hours post-treatment and the sera derived from these samples were analyzed for glucose by spectrophotometric determination of enzymatically produced NADH2 (reduced form of nicotinamide adenine dinucleotide), using the commercial reagent "Escalab G-15™" according to the method described by Holland et al and by Barthelmai et al, both cited above. The test results are shown in Tables 4 and 5, and the ED50 values shown in Table 4 were calculated as the dose of compound which elevated blood glucose levels by 50 percent.

The test system of experiment [2] is carrageenan-induced paw edema. The experiment can be described thus: Anti-inflammatory activity, carrageenan-induced paw edema. The arrangement: species or system Sprague-Dawley rats. The note with it: rat, in vivo. The protocol: as §1, §2
Substances were administered subcutaneously to six Sprague-Dawley rats, weighing 100-120 g. A suspension of 0.03% carageenan was injected under the plantar skin of a hind paw. The increase in volume of the inflamed paw was measured 3 and 5 hours after drug administration.
Background: Carrageenan injected into the paw causes an acute inflammation.

Setting [3] is: Mus musculus, sc, mice, 128 mg/kg, read-out: Response % inhibition.
The mark [4] stands for this setting: Mus musculus, sc, mice, read-out: Response % inhibition.
Setting [5] is: Mus musculus, sc, mice, Litchfield and Wilcoxon, read-out: ED50.
The mark [6] stands for this setting: 2 hours, read-out: ED50, hyperglycemic activity, post-treatment 2 hours.
The mark [7] stands for this setting: 4 hours, read-out: ED50, hyperglycemic activity, post-treatment 4 hours.

What is called ED50 is the dose that gives a 50% effect, or the effect in half of the subjects.

Entries after “also recorded” stand apart in the source; their conditions may differ. Read-outs that look alike come from different tables or passages of the source.

Regarding `CC(=O)Oc1ccccc1C(=O)O` [Aspirin, reference compound], the 50% effective dose (ED50) in experiment [1] (Mus musculus, sc) came out at 52 mg/kg.
With `CCCNC(=O)NS(=O)(=O)c1ccc(Cl)cc1` [Chlorpropamide, reference compound], in the experiment with blood glucose (2 hours), the “% change in blood-glucose concentrations, post-treatment 2 hours” value (from here on “% change … post-treatment 2 hours”) is reported as above -40%. Besides, the “% change in blood-glucose concentrations, post-treatment 4 hours” value (“% change … post-treatment 4 hours” below) in the experiment on blood glucose (4 hours) was above -40%.
Regarding `O=C(NN1CC=CCC1)c1cccc[n+]1[O-]` [Compound A-36, N-(2-pyridylcarbonylamino-1-oxide)-1,2,3,6-tetrahydropyridine], the inhibition in vivo at 128 mg/kg in experiment [1] (setting [3]) is 55.3%. For the same compound, the “Physiological activity: analgesic (in words)” value in experiment [1] is given as “analgesic”. Also, the “Physiological activity: anti-inflammatory (in words)” value in experiment [2] is on record as “anti-inflammatory”.
In the case of `COC(=O)N1C=CC(C(=O)NN2CC=CCC2)=CC1` [Compound A-45, N-[4-(1-methoxycarbonyl-1,2-dihydropyridyl)carbonylamino]-1,2,3,6-tetrahydropyridine], in experiment [1] (setting [4]), the inhibition in vivo at 16 mg/kg is 61%, the inhibition in vivo at 32 mg/kg amounted to 61% and the inhibition in vivo at 256 mg/kg was determined as 95%. The inhibition in vivo at 128 mg/kg in experiment [1] (setting [3]) was found to be 97%. Besides, the “Physiological activity: analgesic (in words)” value in experiment [1] is reported as “active analgesics; also recorded: analgesic”. Besides, in experiment [2], the “Physiological activity: anti-inflammatory (in words)” value was “striking anti-inflammatory action, comparing favourably with the standard compound used”.
For `O=C(Cc1cccnc1)NN1CC=CCC1` [Compound A-48, N-(3-picolylcarbonylamino)-1,2,3,6-tetrahydropyridine], the inhibition in vivo at 8 mg/kg in experiment [1] (Mus musculus, sc, mice, 8 mg/kg, read-out: Response % inhibition) amounted to 28%. In addition, in experiment [1] (setting [4]), the inhibition in vivo at 16 mg/kg worked out at 45%, the inhibition in vivo at 32 mg/kg came to 94% and the inhibition in vivo at 256 mg/kg is 100%. Moreover, the inhibition in vivo at 128 mg/kg in experiment [1] (setting [3]) is 100%. In addition, the 50% effective dose (ED50) in experiment [1] (setting [5]) was 14.5 mg/kg. Besides, the “Physiological activity: analgesic (in words)” value in experiment [1] was “active analgesics; also recorded: analgesic”. Moreover, in experiment [2], the “Physiological activity: anti-inflammatory (in words)” value is recorded as “striking anti-inflammatory action, comparing favourably with the standard compound used”.
On to `COC(=O)N1CC=C(C(=O)NN2CC=CCC2)CC1` [Compound A-49, N-[4-(1-methoxycarbonyl-1,2,3,6-tetrahydropyridyl)carbonylamino]-1,2,3,6-tetrahydropyridine], for which, in experiment [1] (setting [4]), the inhibition in vivo at 64 mg/kg came to 3% and the inhibition in vivo at 256 mg/kg worked out at 95%. The inhibition in vivo at 128 mg/kg in experiment [1] (setting [3]) turned out to be 78%. The “Physiological activity: analgesic (in words)” value in experiment [1] is listed as “active analgesics; also recorded: analgesic”. In experiment [2], the “Physiological activity: anti-inflammatory (in words)” value is “anti-inflammatory”.
Take `CN1CC=C(C(=O)NN2CC=CCC2)CC1` [Compound A-50, N-[4-(1-methyl-1,2,3,6-tetrahydropyridyl)carbonylamino]-1,2,3,6-tetrahydropyridine]: the inhibition in vivo at 256 mg/kg in experiment [1] (setting [4]) was 47%. Moreover, the “Physiological activity: analgesic (in words)” value in experiment [1] was “analgesic”.
As to `O=C(CCc1ccccc1)NN1CC=CCC1` [Compound A-55, N-(phenylethylcarbonylamino)-1,2,3,6-tetrahydropyridine], the inhibition in vivo at 120 mg/kg in experiment [1] (setting [4]) was 42%. Further, the “Physiological activity: analgesic (in words)” value in experiment [1] is “analgesic”. Also, the “Physiological activity: anti-inflammatory (in words)” value in experiment [2] is on record as “striking anti-inflammatory action, comparing favourably with the standard compound used”.
Consider `O=C(COc1ccccc1)NN1CC=CCC1` [Compound A-62, N-(phenoxymethylenecarbonylamino)-1,2,3,6-tetrahydropyridine], for which the inhibition in vivo at 25 mg/kg in experiment [1] (Mus musculus, sc, mice, 25 mg/kg, read-out: Response % inhibition) amounted to 50%. For the same compound, the median effective dose (ED50) in experiment [1] (setting [5]) came to 25 mg/kg; in the experiment with blood glucose (setting [6]), 41 mg/kg; in the experiment on blood glucose (setting [7]), 53 mg/kg. Moreover, the “Physiological activity: analgesic (in words)” value in experiment [1] is “active analgesics; also recorded: analgesic”. Besides, in experiment [2], the “Physiological activity: anti-inflammatory (in words)” value was “striking anti-inflammatory action, comparing favourably with the standard compound used”. Moreover, the “Physiological activity: hyperglycemic (in words)” value with blood glucose is recorded as “significant hyperglycemic activity; also recorded: hypergylcemic”.
For the compound `O=C(NN1CC=CCC1)C1CCCCC1` [Compound A-63, N-(cyclohexylcarbonylamino)-1,2,3,6-tetrahydropyridine], in experiment [1] (Mus musculus, sc, mice, 16.5 mg/kg, read-out: Response % inhibition), the inhibition in vivo at 16.5 mg/kg is 50%. For the same compound, the values for the 50% effective dose (ED50) (in experiment [1] (setting [5]); in the experiment with blood glucose (setting [6]); in the experiment with blood glucose (setting [7])) were 16.5 mg/kg, 36.5 mg/kg and 53 mg/kg, respectively. Moreover, in experiment [1], the “Physiological activity: analgesic (in words)” value was “active analgesics; also recorded: analgesic”. Moreover, in experiment [2], the “Physiological activity: anti-inflammatory (in words)” value was “striking anti-inflammatory action, comparing favourably with the standard compound used”. The “Physiological activity: hyperglycemic (in words)” value with blood glucose is “significant hyperglycemic activity”.
In the case of `O=C(Cc1ccc2c(c1)OCO2)NN1CC=CCC1` [Compound A-70, N-(3,4-methylenedioxyphenylmethylenecarbonylamino)-1,2,3,6-tetrahydropyridine], the inhibition in vivo at 60 mg/kg in experiment [1] (Mus musculus, sc, mice, 60 mg/kg, read-out: Response % inhibition) came to 80%. Also, the inhibition in vivo at 120 mg/kg in experiment [1] (setting [4]) worked out at 91%. Moreover, the “Physiological activity: analgesic (in words)” value in experiment [1] was “active analgesics; also recorded: analgesic”.
Turning to `COc1ccc(C(=O)NN2CC=CCC2)cc1` [Compound A-77, N-(4-methoxyphenylcarbonylamino)-1,2,3,6-tetrahydropyridine], the inhibition in vivo at 128 mg/kg in experiment [1] (setting [3]) stood at 31.4%. Besides, the “Physiological activity: analgesic (in words)” value in experiment [1] is recorded as “analgesic”. Moreover, the “% change … post-treatment 2 hours” value in the experiment with blood glucose (2 hours) was -69%. Also, in the experiment with blood glucose (4 hours), the “% change … post-treatment 4 hours” value was -26%. The “Physiological activity: hypoglycemic (in words)” value in the experiment on blood glucose is “potent hypoglycemic activity”.
For the compound `Cc1ccc(C(=O)NN2CC=CCC2)cc1` [Compound A-78, N-(4-methylphenylcarbonylamino)-1,2,3,6-tetrahydropyridine], the inhibition in vivo at 64 mg/kg in experiment [1] (setting [4]) was determined as 92.4%. Further, the “Physiological activity: analgesic (in words)” value in experiment [1] was “active analgesics; also recorded: analgesic”. Besides, the “% change … post-treatment 2 hours” value with blood glucose (2 hours) is given as -73%. Also, in the experiment on blood glucose (4 hours), the “% change … post-treatment 4 hours” value is recorded as -41%. Further, in the experiment with blood glucose, the “Physiological activity: hypoglycemic (in words)” value is on record as “potent hypoglycemic activity”.
For `O=C(NN1CC=CCC1)c1ccc(Cl)cc1` [Compound A-79, N-(4-chlorophenylcarbonylamino)-1,2,3,6-tetrahydropyridine], in experiment [1] (setting [4]), the inhibition in vivo at 64 mg/kg stood at 33.9%. Besides, the “Physiological activity: analgesic (in words)” value in experiment [1] is on record as “analgesic”. Also, in the experiment on blood glucose (4 hours), the “% change … post-treatment 4 hours” value is -26%. The “Physiological activity: hypoglycemic (in words)” value with blood glucose was “potent hypoglycemic activity”.
Regarding `O=C(NN1CC=CCC1)c1ccc(Cl)c(Cl)c1` [Compound A-80, N-(3,4-dichlorophenylcarbonylamino)-1,2,3,6-tetrahydropyridine], in experiment [1] (setting [3]), the inhibition in vivo at 128 mg/kg was determined as 72%. For the same compound, the “Physiological activity: analgesic (in words)” value in experiment [1] is “active analgesics; also recorded: analgesic”. Further, the “% change … post-treatment 2 hours” value with blood glucose (2 hours) is reported as -50%. Moreover, the “% change … post-treatment 4 hours” value with blood glucose (4 hours) is recorded as -50%. For the same compound, the “Physiological activity: hypoglycemic (in words)” value with blood glucose was “potent hypoglycemic activity”.
In turn, `CCC(=O)O[C@](Cc1ccccc1)(c1ccccc1)[C@H](C)CN(C)C` [Dextropropoxyphene, reference compound] came in with a 50% effective dose (ED50) in experiment [1] (Mus musculus, sc) of 56 mg/kg.
With “N-(benzoylamino)-3(diethylaminocarbonyl)-1,2,3,6-tetrahydropyridine [Compound A-43]”, the “Physiological activity: analgesic (in words)” value in experiment [1] was “analgesic”. In experiment [1] (s.c., mice, 128 mg/kg), this compound gave a Response % inhibition of 39.0%.
